Measurements from US20140357620A1, “METHOD FOR ADMINISTRATION OF A GAMMA SECRETASE INHIBITOR” (Hoffmann-La Roche Inc., priority 2011, published 2014).
Like-named read-outs stand apart in the source and are kept apart here.

What was measured:
[1] = ongoing first phase 1 trial of Compound A (pharmacokinetics); set-up: species or system patients; details: human, in vivo, oral
Description: This schedule (C) includes 11 dosing days in a 3-week cycle.

[2] = set-up: species or system patients; details: human, in vivo
Method: If deemed safe, then dose escalation to dose intensities at and above that given in the 3-4 schedule at 270 mg/day will be performed. For safety reasons, the first cohorts of patients enrolled in schedules C, D, E and F will be treated with lower doses (dose level 1: 14% to 37% of dose intensity of 3-4 schedule at 270 mg). Then in the subsequent cohorts, the dose will be escalated by 50%-100%.

With `CC(C)(C(=O)NCC(F)(F)C(F)(F)F)C(=O)N[C@@H]1C(=O)Nc2ccccc2-c2ccccc21` [Compound A, 2,2-dimethyl-N-((S)-6-oxo-6,7-dihydro-5H-dibenzo[b,d]azepin-7-yl)-N′-(2,2,3,3,3-pentafluoro-propyl)-malonamide] the half-life ([1]; mean, read-out: mean terminal half-life (converted)) was 42.2 h, the half-life ([1]; range, read-out: terminal half-life (range)) was 10 to 93 h and the “highest safe dose tested so far” value [2] was 270 mg/day.
